One assay has as its system HBCx-17 TNBC PDX. As to the kind of experiment: PDX efficacy study. To be noted: olaparib 100 mg kg−1 qd single agent. It counts as in vivo, mice. How it is done: (§1) Immunocompromised SCID (C.B-17/IcrHan®Hsd-Prkdc^scid) or Hsd:Athymic Nude-Foxn1^nu female mice (Envigo) were used for tumour implantation. […] When dosed twice daily, the time between the morning and evening doses was 8 h. Targeted irradiation of 2 Gy was delivered over 2 min daily over the first 5 days of treatment. Liposomal doxorubicin (Doxoves) was diluted in physiological saline and intravenously dosed at 2.5 or 5 mg kg^−1 once per week. Olaparib was formulated in 10% DMSO/30% Kleptose and orally dosed at 100 mg kg^−1 once daily. […] Statistical significance was evaluated using a one-tailed t-test. All in vivo studies complied with all relevant ethical regulations for animal testing and research, followed AstraZeneca’s global bioethics policy and received ethical approval from the AstraZeneca ethical committee. HBCx-17 PDX study was carried out at XenTech, France in accordance with French regulatory legislation concerning the protection of laboratory animals. CTG-703, CTG-0828 and CTG-0149 PDX studies were carried out at Champions Oncology, Inc., USA in accordance to the guidelines of the Institutional Animal Care and Use Committee (IACUC) of Champions Oncology and the USA regulatory legislation. CDX and OV2022 PDX studies were conducted in the UK in accordance with UK Home Office legislation, the Animal Scientific Procedures Act 1986 and the Home Office project licences 70/8839, 70/8894 and P0EC1FFDF. […]
(§2) SCID mice were surgically implanted subcutaneously with tumour fragments from donor mice. Tumours were measured (length x width) by bilateral Vernier calliper measurements and tumour volume calculated using Mousetrap software. Mice were randomized into […]
treatment groups when mean tumour volume reached ~0.2 cm 3.

Assay [1] has as its system FaDu and A549 ATM KO cells. As to the kind of experiment: Colony formation assay, olaparib, ATM KO versus WT isogenic pairs. Type of assay: cell-based, human. To be noted: olaparib single agent. The method, then:
(§3) Graphs represent percentage viable cells ± SD following 7 days' treatment relative to DMSO vehicle-treated controls from one representative experiment of at least three independent experiments. […] Mean pGI50 (-log [GI50]) ± SEM, geometric mean GI50, number of experimental repeats (n) and 95% confidence interval are described. C) Colony formation assay was performed on FaDu and A549 ATM KO and WT cells treated with increasing concentrations of olaparib. Graphs represent percentage surviving fraction of colonies ± SD following 10- 14 days' treatment relative to DMSO vehicle-treated control from one representative experiment of three independent experiments. […] Optimized image algorithms were used to evaluate phenotypic response s using nuclear staining with Hoechst (cell cycle, micronuclei, nuclear fragmentation ), as well as to quantify the response of DNA damage response markers (foci numbers and total signal […] SDS-PAGE and Western blotting of samples Protein lysates were generated by scraping cells in radioimmunoprecipitation assay […] and protease and phosphatase inhibitor tablets (Roche) following compound treatments at indicated time points. Protein concentration was determined using the BCA protein assay kit (ThermoFisher). Proteins were separated by SDS -PAGE on NuPAGE® 4-12% […] membranes using the iBlot ® dry blotting system (ThermoFisher). […]

For a further assay, the system named is FaDu ATM KO xenografts. As to the kind of experiment: Xenograft efficacy study with olaparib. It counts as in vivo, mice. To be noted: continuous olaparib 100 mg kg−1 qd single agent. How it is done:
Immunocompromised SCID (C.B-17/IcrHan®Hsd-Prkdc^scid) or Hsd:Athymic Nude-Foxn1^nu female mice (Envigo) were used for tumour implantation. […] When dosed twice daily, the time between the morning and evening doses was 8 h. Targeted irradiation of 2 Gy was delivered over 2 min daily over the first 5 days of treatment. Liposomal doxorubicin (Doxoves) was diluted in physiological saline and intravenously dosed at 2.5 or 5 mg kg^−1 once per week. Olaparib was formulated in 10% DMSO/30% Kleptose and orally dosed at 100 mg kg^−1 once daily. […] Statistical significance was evaluated using a one-tailed t-test. […]
Tumours were measured (length x width) by bilateral Vernier calliper measurements and tumour volume calculated using Mousetrap software. […]
HPMC/T. Tumour growth inhibition from start of treatment was assessed by co mparison of the mean change in tumour volume for the control and treated groups, using the Mousetrap application and represented as tumour growth inhibition (TGI). Statistical significance was evaluated using a one-tailed t-test. […]
was prepared using an appropriate dilution factor and compared against an 11-point standard calibration curve (1–10,000 nM) prepared in DMSO and spiked into bl ank plasma. […] Supernatant (50 µL) was then diluted in 300 µL water and analysed with ultra-performance liquid chromatography–tandem mass […]

The test system of the next assay is FaDu ATM KO cells. Put plainly: Clonogenic survival (colony formation assay). It counts as cell-based. To be noted: Homo sapiens. How it is done:
as §3

In another assay the test system is CTG-0149 H&N PDX. Put plainly: PDX efficacy study. Type of assay: in vivo, mice. To be noted: olaparib single agent. How it is done: as §1, §2
(§4) treatment groups when mean tumour volume reached ~0.2 cm 3. AZD7648 was formulated in 0.5% hydroxypropyl methylcellulose (HPMC)/0.1% Tween80 (HPMC/T) and orally dosed (4–100 mg/kg). When dosed twice daily (bid), the time between the morning and evening doses was 8 hours. Targeted irradiation of 2 Gy was delivered over 2 minutes daily over the first 5 days of treatment. Liposomal doxorubicin (Doxoves) was diluted in physiological saline and intravenously dosed at 2.5 or 5 mg/kg once per week. Olaparib was formulated in 10% DMSO/30% Kleptose and orally dosed at 100 mg/kg once daily.
(§5) HPMC/T. Tumour growth inhibition from start of treatment was assessed by co mparison of the mean change in tumour volume for the control and treated groups, using the Mousetrap application and represented as tumour growth inhibition (TGI). Statistical significance was evaluated using a one-tailed t-test. HBCx-17 PDX study was carried out at XenTech, France in accordance with French regulatory legislation concerning the protection of laboratory animals. CTG-703, CTG-0828 and CTG-0149 PDX studies were carried out at Champions Oncology, Inc., USA in accordance to the guidelines of the Institutional Animal Care and Use Committee (IACUC) of Champions Oncology and the USA regulatory legislation. CDX and OV2022 PDX studies were conducted in the UK in accordance with UK Home Office legislation, the Animal Scientific Procedures Act 1986, and AstraZeneca’s global bioethics policy. Experimental details are outlined in Home […]
(§6) Blood samples were taken via venipuncture of the tail vein. Whole blood was mixed 1: 5 with PBS and centrifuged at 1500g for 3 minutes at 4°C, and the plasma was extracted […]
(§7) was prepared using an appropriate dilution factor and compared against an 11-point standard calibration curve (1–10,000 nM) prepared in DMSO and spiked into bl ank plasma. Acetonitrile (100 µL) was added with the internal standard, followed by centrifugation at 3000 rpm for 10 minutes. Supernatant (50 µL) was then diluted in 300 µL water and analysed with ultra-performance liquid chromatography–tandem mass […]
(§8) Xenograft sample preparation
(§9) Animals were euthanized and tumour samples snap frozen in liquid nitrogen or fixed in formalin and paraffin embedded for subsequent analysis. Tumour pieces were lysed in […]

In another assay the test system is CTG-0828 NSCLC PDX. Put plainly: PDX efficacy study. Type of assay: in vivo, mice. To be noted: olaparib single agent. How it is done:
as §1, §2, §4, §5, §6, §7, §8, §9

Another assay deals with CTG-703 ovarian PDX. Put plainly: PDX efficacy study. Type of assay: in vivo, mice. To be noted: olaparib single agent. How it is done:
as §1, §2, §4, §5, §6, §7, §8, §9

The next assay concerns OV2022 ovarian PDX. As to the kind of experiment: PDX efficacy study. Type of assay: in vivo, mice. To be noted: olaparib single agent. The method, then: as §1, §2, §4, §5, §6, §7, §8, §9

Consider `O=C(c1cc(Cc2n[nH]c(=O)c3ccccc23)ccc1F)N1CCN(C(=O)C2CC2)CC1` [olaparib], for which the tumour regression in the assay on HBCx-17 TNBC PDX came to 42%. Moreover, the entries for the “tumours regressed on day 70 (last day of dosing)” value in the assay with HBCx-17 TNBC PDX and in the assay with HBCx-17 TNBC PDX (listed as Olaparib) were “four tumours out of nine” and 4/9, respectively. The “greater sensitivity of ATM KO cells compared with isogenic WT cells” value in assay [1] is listed as greater than 10 fold. The TGI in the assay with FaDu ATM KO xenografts is given as 50%; with CTG-703 ovarian PDX, 100%; in the assay on OV2022 ovarian PDX, 65%. The compound also had a concentration for half-maximal inhibition (IC50) in the assay with FaDu ATM KO cells of roughly 100 nM. For the same compound, the “sensitivity of the model to olaparib” value in the assay with CTG-0149 H&N PDX and in the assay with CTG-0828 NSCLC PDX was “insensitive” each time.

One may read the IC50 as the point on the concentration scale where inhibition reaches its midpoint.

(Values after article PMC6838110 (Nature Communications, 2019).)
